Calls of active or inactive are those of the source.
Tests used:
[1] = molecular target: Caspase-6 (Homo sapiens, UniProt P55212); assay: human caspase-6 inhibitors, dose response, biochemical, VEID-R110 fluorescence, cherry-pick (AID 720632)
[2] = cells
[3] = molecular target: T1, Oxysterols receptor LXR-beta (Homo sapiens, UniProt P55055); format: functional, cell-based;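 also: Cell-based luminescence dose-response assay of agonist activity at LXR, run as a confirmatory counterscreen to a daf-12 agonist screen; HEK293 cells with Gal4-LXR fusion and GAL4-driven luciferase reporter; agonist potency from rising luciferase signal of a Gal4-LXR reporter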
T1 sequence (P55055 whole entry): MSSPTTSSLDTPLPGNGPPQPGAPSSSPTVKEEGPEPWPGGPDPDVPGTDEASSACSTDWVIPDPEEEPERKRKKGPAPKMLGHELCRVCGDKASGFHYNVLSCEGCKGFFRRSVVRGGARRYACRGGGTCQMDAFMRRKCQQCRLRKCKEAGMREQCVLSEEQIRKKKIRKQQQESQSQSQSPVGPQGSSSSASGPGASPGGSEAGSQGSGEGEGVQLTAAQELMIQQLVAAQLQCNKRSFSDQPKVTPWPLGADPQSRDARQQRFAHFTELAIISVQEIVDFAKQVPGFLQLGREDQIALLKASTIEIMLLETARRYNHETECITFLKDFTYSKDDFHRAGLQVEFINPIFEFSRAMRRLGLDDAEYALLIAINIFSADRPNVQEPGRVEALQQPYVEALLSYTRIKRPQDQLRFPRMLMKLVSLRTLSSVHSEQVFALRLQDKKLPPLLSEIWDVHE

[4] = system: BJ; assay: cytotoxicity toward BJ-TERT fibroblasts, dose response, cell-based, RAS-independent, luminescence (AID 1933); format: functional; conditions: Homo sapiens
[5] = system: BJ; assay: cells; format: functional, cell-based; conditions: Homo sapiens
[6] = system: INS1; assay: beta cell apoptosis inhibitors, cytokine rescue, dose response, luminescence, retest (AID 449756); format: functional, cell-based; conditions: Rattus norvegicus;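 also: cell death triggered by IL-1 beta plus TNF-alpha plus IFN-gamma mixture; protective hits raise ATP signal compared with cytokine alone wells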
[7] = molecular target: Luciferin 4-monooxygenase (Photinus pyralis, UniProt P08659); assay: firefly luciferase enzyme inhibitors, dose response, biochemical, luminescence (AID 1891)
[8] = LGR2 antagonists, dose response, cell-based, HEK293, CRE-luciferase reporter, cherry pick, set 2 (AID 743343); format: functional;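 also: transfected cells were stimulated with diluted bursicon conditioned medium after compound addition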
[9] = HEK293 cell cytotoxicity, dose response, cytotoxicity control, plate reader, cherry-picked samples (AID 743446); format: functional, cell-based
[10] = HepG2 cell cytotoxicity, dose response, cytotoxicity control, plate reader, cherry-pick, antagonist series (AID 743416); format: functional, cell-based
[11] = Luminescence Cell-Based Dose Confirmation HTS to Identify Inhibitors of Platelet Dense Granule Release. [Related pubchem assays: 1663 (Primary HTS), 1678 (Summary of Project)]; format: functional
[12] = cytotoxicity toward DRD oncogenic fibroblasts, dose response, cell-based, non-viral oncogenic, luminescence (AID 1934); format: functional; conditions: Homo sapiens
[13] = MC4R antagonists, dose response, counter-screen for LGR2 antagonist project, cell-based, plate reader, cherry pick (AID 743444); format: functional;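 also: transfected HEK 293 cells stimulated with alpha-MSH peptide; potency of inhibitors of the alpha-MSH evoked signal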
[14] = molecular target: Endoplasmic reticulum aminopeptidase 1 (Homo sapiens, UniProt Q9NZ08); assay: ERAP1 aminopeptidase inhibitors, dose response, biochemical, cherry-pick, set 2, plate reader (AID 743314)
[15] = A549 cell cytotoxicity, dose response, cytotoxicity control, plate reader, cherry-pick, antagonist series (AID 743412); format: functional, cell-based
[16] = system: BJ; assay: cytotoxicity toward BJ-TERT-LT-ST fibroblasts, dose response, cell-based, RAS-independent, luminescence (AID 1935); format: functional; conditions: Homo sapiens;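 also: BJ fibroblasts immortalized with TERT plus LT and ST oncogenes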
[17] = reduction of Shn3 3'UTR firefly luciferase signal, dose response, Schnurri-3 inhibitor project, cell-based, Clone20 osteoblasts, cherry-pick, set 2 (AID 720490); format: functional;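 also: actives lower the luminescence signal as inhibitors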
[18] = control 3'UTR Renilla luciferase suppression, dose response, counter-screen for Shn3 inhibitor project, cell-based, Clone20-Shn3RL, cherry-picked (AID 624133); format: functional
[19] = HepG2 cell cytotoxicity, dose response, cytotoxicity control for Shn3 inhibitor project, CellTiter-Glo, cherry-picked (AID 624134); format: functional, cell-based
[20] = Shn3 3'UTR reporter inhibitors, dose response, cell-based, Clone20 osteoblasts, firefly luciferase, cherry-picked (AID 624132); format: functional;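 also: firefly luciferase luminescence from reporter carrying the Shn3 3'UTR in osteoblasts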
[21] = molecular target: 1-phosphatidylinositol 4,5-bisphosphate phosphodiesterase gamma-1 (Homo sapiens, UniProt P19174); assay: Counterscreen for inhibitors of phospholipase C isozymes (PLC-B3): Fluorescence-based biochemical high throughput dose response assay to identify inhibitors of phospholipase C isozymes (PLC-gamma1).
[22] = molecular target: 1-phosphatidylinositol 4,5-bisphosphate phosphodiesterase beta-3 (Homo sapiens, UniProt Q01970); assay: Fluorescence-based biochemical high throughput dose response assay to identify inhibitors of phospholipase C isozymes (PLC-B3).
[23] = molecular target: Paired box protein Pax-8 (Homo sapiens, UniProt Q06710); assay: inhibitors of PAX8-driven TPO luciferase reporter, dose response, RMG-I cells, cherry-pick (AID 687027); format: functional, cell-based;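 also: luciferase reporter driven by Pax8 target thyroperoxidase promoter measured by SteadyGlo luminescence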
[24] = IOSE-T80 ovarian epithelial cell cytotoxicity, dose response, cytotoxicity control for PAX8 inhibitor project, plate reader, dry powder samples (AID 743045); format: functional, cell-based
[25] = cytotoxicity in OVCAR8 ovarian cancer cells, dose response, PAX8 project, cell-based, plate reader, dry powder samples (AID 743197); format: functional; conditions: OVCAR-8
[26] = NIH:OVCAR-3 ovarian cancer cell cytotoxicity, dose response, PAX8 inhibitor project, plate reader, dry powder samples (AID 743044); format: functional, cell-based

Luciferin 4-monooxygenase, sequence (P08659 whole entry): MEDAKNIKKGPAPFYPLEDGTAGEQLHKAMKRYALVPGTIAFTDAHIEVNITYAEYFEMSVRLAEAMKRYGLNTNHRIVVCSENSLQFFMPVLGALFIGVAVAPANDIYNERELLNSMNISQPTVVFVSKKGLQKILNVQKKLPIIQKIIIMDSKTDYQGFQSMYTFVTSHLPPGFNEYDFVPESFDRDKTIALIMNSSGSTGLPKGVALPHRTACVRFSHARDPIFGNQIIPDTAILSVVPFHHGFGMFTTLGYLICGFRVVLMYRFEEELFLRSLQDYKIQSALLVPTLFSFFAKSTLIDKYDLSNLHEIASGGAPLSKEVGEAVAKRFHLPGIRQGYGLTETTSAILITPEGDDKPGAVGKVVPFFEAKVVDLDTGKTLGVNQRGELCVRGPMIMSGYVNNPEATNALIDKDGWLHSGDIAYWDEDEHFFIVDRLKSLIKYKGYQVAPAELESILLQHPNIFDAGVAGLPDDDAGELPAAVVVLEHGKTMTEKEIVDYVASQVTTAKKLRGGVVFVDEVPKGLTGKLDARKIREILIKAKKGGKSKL
Caspase-6, sequence (P55212 24-179 limits assumed): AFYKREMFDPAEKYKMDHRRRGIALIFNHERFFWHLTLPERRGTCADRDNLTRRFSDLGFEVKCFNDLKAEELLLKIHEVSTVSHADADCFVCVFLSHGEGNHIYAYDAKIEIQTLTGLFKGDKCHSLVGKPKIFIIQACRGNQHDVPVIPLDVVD
Caspase-6, sequence (P55212 194-293 limits assumed): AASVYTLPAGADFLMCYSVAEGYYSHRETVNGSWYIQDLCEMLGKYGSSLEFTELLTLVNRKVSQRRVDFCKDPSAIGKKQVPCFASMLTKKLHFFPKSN
1-phosphatidylinositol 4,5-bisphosphate phosphodiesterase gamma-1, sequence (P19174 whole entry): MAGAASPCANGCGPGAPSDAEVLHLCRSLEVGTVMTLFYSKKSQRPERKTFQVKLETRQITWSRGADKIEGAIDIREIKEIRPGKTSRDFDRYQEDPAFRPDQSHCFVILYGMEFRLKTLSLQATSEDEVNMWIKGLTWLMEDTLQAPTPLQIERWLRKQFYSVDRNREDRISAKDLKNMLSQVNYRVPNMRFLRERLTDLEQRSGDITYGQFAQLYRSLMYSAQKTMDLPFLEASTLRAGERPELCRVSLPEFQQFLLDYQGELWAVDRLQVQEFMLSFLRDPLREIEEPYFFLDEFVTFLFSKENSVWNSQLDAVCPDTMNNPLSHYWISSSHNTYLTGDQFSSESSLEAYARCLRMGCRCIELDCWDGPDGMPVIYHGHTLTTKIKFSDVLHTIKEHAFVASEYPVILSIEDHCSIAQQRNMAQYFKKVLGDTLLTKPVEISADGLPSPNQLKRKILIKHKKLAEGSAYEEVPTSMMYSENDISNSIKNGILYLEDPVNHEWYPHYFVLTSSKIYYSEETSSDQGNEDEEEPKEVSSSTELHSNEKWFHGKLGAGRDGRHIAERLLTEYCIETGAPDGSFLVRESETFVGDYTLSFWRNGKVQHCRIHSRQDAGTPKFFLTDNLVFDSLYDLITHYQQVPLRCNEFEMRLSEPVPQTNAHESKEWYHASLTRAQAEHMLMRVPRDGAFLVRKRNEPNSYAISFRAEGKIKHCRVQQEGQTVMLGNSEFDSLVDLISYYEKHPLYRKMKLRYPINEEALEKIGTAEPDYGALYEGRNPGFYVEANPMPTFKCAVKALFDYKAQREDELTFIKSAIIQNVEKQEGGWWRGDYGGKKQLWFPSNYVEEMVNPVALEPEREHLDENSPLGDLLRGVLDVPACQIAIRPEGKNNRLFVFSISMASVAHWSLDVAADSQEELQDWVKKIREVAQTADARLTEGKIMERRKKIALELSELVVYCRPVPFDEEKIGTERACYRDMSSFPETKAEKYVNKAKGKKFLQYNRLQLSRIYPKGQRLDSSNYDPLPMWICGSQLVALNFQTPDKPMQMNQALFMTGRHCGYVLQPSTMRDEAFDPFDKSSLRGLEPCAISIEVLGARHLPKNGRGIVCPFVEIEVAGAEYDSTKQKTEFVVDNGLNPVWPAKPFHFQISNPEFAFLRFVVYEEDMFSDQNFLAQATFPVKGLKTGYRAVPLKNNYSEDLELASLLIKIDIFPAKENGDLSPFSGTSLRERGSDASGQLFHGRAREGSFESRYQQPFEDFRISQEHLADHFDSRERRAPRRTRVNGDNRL
1-phosphatidylinositol 4,5-bisphosphate phosphodiesterase beta-3, sequence (Q01970 whole entry): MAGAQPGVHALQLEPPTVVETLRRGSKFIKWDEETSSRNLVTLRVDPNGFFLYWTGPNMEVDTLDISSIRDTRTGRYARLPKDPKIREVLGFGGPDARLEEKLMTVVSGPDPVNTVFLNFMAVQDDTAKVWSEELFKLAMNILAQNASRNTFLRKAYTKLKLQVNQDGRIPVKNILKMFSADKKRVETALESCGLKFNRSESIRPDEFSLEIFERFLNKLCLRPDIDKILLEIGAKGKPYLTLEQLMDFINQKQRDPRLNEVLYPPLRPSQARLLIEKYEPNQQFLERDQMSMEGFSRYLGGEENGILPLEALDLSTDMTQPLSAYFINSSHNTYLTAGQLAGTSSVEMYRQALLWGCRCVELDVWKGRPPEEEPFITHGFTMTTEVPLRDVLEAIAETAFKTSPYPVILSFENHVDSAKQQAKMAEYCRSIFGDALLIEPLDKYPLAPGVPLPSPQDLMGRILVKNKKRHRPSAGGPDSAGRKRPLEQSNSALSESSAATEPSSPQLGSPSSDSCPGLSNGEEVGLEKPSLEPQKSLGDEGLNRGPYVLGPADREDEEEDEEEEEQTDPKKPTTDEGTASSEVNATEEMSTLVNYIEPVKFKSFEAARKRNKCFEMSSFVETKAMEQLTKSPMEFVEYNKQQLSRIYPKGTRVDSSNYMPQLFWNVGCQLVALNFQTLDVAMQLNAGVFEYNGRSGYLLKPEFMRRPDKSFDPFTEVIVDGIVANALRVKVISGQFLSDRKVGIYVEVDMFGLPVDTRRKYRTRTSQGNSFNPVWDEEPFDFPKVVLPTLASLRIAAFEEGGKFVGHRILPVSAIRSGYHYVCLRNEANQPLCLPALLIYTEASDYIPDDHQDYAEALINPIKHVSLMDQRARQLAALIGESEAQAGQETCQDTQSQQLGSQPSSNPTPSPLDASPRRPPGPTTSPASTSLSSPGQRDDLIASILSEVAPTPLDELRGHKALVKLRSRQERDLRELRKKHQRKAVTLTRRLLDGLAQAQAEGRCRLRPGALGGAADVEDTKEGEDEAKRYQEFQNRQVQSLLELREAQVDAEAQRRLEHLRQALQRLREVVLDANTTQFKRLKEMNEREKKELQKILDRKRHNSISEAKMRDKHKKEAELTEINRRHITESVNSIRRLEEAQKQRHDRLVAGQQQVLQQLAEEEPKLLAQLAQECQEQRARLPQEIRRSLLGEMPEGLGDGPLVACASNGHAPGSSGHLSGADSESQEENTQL
Endoplasmic reticulum aminopeptidase 1, sequence (Q9NZ08 whole entry): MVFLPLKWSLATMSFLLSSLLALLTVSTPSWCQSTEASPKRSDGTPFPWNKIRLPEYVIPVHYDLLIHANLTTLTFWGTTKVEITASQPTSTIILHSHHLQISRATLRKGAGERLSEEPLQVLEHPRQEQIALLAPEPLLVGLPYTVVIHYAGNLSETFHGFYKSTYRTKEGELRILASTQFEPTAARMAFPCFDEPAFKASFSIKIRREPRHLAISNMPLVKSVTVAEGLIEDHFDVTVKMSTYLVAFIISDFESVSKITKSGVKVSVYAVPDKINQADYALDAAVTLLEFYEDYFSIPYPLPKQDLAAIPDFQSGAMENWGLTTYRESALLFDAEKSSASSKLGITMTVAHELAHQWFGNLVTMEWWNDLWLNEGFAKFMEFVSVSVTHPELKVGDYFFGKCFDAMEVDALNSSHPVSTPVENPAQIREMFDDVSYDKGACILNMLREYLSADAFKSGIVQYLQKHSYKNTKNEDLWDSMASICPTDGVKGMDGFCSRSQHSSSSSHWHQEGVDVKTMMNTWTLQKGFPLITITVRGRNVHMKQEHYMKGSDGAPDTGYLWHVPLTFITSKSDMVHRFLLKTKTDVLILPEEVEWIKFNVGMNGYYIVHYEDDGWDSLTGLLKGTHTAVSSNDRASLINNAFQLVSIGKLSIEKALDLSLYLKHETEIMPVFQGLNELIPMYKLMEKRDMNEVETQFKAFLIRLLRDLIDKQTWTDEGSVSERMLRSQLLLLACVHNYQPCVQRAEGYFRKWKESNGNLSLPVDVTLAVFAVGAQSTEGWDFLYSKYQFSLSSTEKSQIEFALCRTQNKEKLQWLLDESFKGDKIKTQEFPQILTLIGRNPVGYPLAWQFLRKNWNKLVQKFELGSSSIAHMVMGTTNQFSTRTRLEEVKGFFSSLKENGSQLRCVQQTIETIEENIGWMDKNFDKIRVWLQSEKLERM
Paired box protein Pax-8, sequence (Q06710 whole entry): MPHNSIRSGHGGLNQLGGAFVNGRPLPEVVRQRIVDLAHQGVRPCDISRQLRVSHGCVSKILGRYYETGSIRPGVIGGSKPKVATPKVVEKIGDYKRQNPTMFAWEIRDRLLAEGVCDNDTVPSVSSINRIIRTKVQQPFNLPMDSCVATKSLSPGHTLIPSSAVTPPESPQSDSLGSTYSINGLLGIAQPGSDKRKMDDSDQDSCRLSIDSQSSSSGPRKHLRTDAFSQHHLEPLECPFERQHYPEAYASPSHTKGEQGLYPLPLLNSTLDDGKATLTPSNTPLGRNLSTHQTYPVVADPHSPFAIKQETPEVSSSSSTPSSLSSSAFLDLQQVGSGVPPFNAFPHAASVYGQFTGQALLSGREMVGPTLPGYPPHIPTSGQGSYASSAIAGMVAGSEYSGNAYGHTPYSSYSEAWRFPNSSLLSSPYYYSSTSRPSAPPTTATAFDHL

With NNC(=O)CNC(=O)Nc1nnc(S)s1 the AC50 [1] was 6.63 µM (active).
For COc1ccccc1C(=O)NC(=O)Nc1cccc(Cl)c1, the EC50 [2] was > 67.5 µM (inactive) and the EC50 [3] was > 67.5 µM (inactive).
In the case of Cc1cc2nc(-c3cccnc3O)[nH]c2cc1C, the EC50 [4] was 4.58 µM (active), the EC50 [5] was 8.47 µM (active) and the AC50 [6] was 3.23 µM (active). For the same compound, the EC50 [7] was 1.07 µM (active), the AC50 [8] was 2.48 µM (active) and the AC50 [9] was 6.43 µM (active). The AC50 [10] was 7.17 µM (active), the EC50 [11] was 1.73 µM (active) and the EC50 [12] was 4.3 µM (active). For the same compound, the AC50 [13] was 2.69 µM (active), the AC50 [14] was 7.63 µM (active) and the AC50 [15] was 8.69 µM (active). For the same compound, the EC50 [16] was 13.3 µM (active).
For COc1cc(NC(=O)c2cccc3c(-c4cccnc4)coc23)cc(OC)c1OC, the AC50 [17] was 5.23 µM (active), the AC50 [18] was 11.5 µM (active) and the AC50 [19] was 57.5 µM (active). For the same compound, the AC50 [8] was 11.2 µM (active), the AC50 [9] was 28.6 µM (active) and the AC50 [10] was > 52 µM (inactive). The AC50 [13] was 11.2 µM (active) and the AC50 [20] was 0.978 µM (active).
In the case of CC(C)c1ccccc1NC(=O)Nc1ccc2c(c1)OCO2, the IC50 [21] was > 123 µM (inactive) and the IC50 [22] was > 123 µM (inactive).
In the case of C[C@@H]1CCCCO[C@H](CN(C)Cc2ccc(C(=O)Nc3ccccc3N)cc2)[C@@H](C)CN([C@@H](C)CO)C(=O)c2cc(NS(=O)(=O)c3ccc(Cl)cc3)ccc2O1, the AC50 [23] was 11.7 µM (active), the AC50 [24] was 46.9 µM (active) and the AC50 [25] was 41.6 µM (active). For the same compound, the AC50 [26] was 7.38 µM (active).

— ChEMBL document CHEMBL1201862, “PubChem BioAssay data set” (2004)
